Data on one molecule can be found in PMC11830721 (Frontiers in Pharmacology, 2025).

Structures are written as SMILES. Where only a bound is given, the exact number is not on record here.

For data set [1], the system named is COLO 829BL cells. The experiment in a line: MTT assay, COLO 829BL (normal hematopoietic). The class given is cell-based. As to conditions: 2–64 μM. The source says: The human AML cell line MV4-11, which bears exclusive FLT3-ITD mutation genes, was purchased from the American Type Culture Collection (ATCC, Manassas, VA, United States), and the AML cell line NB4, a FLT3-wildtype cell line, was obtained from the China Center for Type Culture Collection (CCTCC, Wuhan, China). In addition, the normal hematopoietic cell line was COLO 829BL from ATCC. The cells were maintained in RPMI-1640 medium supplemented with 10% FBS, and 1% penicillin and streptomycin. The cells were cultured in an incubator at 37°C with 5% CO2. […] The high-performance liquid chromatography (HPLC) spectra data for each compound are provided in the (Supplementary Figures S1–S6). The FLT3-ITD mutant protein was purchased from Abcam (Cambridge, United Kingdom).
The effects of the test compounds on MV4-11, NB4, and COLO 829BL cell lines were quantitatively evaluated according to the methods previously reported ([Zhou et al., 2022]).
Subsequently, to further validate the specificity of FLIN-4 for cells expressing FLT3-ITD, we conducted MTT assays to assess the specificity and cytotoxicity of FLIN-4 within the concentration range of 2–64 μM on NB4 cells (harboring FLT3 wild-type) and COLO 829BL cells (representing normal hematopoietic cells). […]

Data set [2] has as its system FLT3 signaling pathway (p-FLT3, p-STAT5, p-ERK) in MV4-11 cells. In words: Western blot of FLT3 signaling pathway in MV4-11 cells. The class given is cell-based, human. The conditions noted are these: 4 h, MV4-11, Western blot quantification. On the procedure:
The MV4-11 cell line was subjected to a 4 h exposure to varying concentrations of the FLIN-4 compound. Subsequent to this treatment, cellular lysis was conducted using RIPA lysis buffer (Sigma-Aldrich, United States) to isolate total cellular proteins. Subsequently, protein concentrations were precisely quantified using the BCA protein assay kit (Beyotime, Nantong, China). Western blot analysis was carried out in accordance with established methodologies ([Zhou et al., 2022]). The primary antibodies utilized in this study included: rabbit anti-FLT3 (21049−1-AP, Proteintech Group), rabbit anti-phospho-FLT3 (ab171975, Abcam), rabbit anti-Stat5 (#94205, CST), rabbit anti-Phospho-Stat5 (#4322, CST), rabbit anti-ERK (16443−1-AP, Proteintech Group), rabbit anti-phospho-ERK (28733−1-AP, Proteintech Group), and a rabbit anti-GAPDH antibody (10494−1-AP, Proteintech Group) served as an endogenous loading control.
To elucidate the impact of FLIN-4 on the FLT3 signaling cascade, we conducted a Western blot analysis in MV4-11 cells to evaluate the relative expression levels of pivotal phosphorylated proteins.

For data set [3], the target named is 60 non-target kinases. The experiment in a line: SelectScreen kinase selectivity profiling, whole panel. The class given is biochemical. The conditions noted are these: all 60 kinases. The source says:
Moreover, we extended the kinase selectivity profiling of FLIN-4 to evaluate its inhibitory activity against 60 non-target kinases.

The target in data set [4] is ABL1 (Homo sapiens, UniProt P00519). The experiment in a line: SelectScreen kinase selectivity assay. The format is biochemical. As to conditions: ten-dose 0.25–128 μM. On the procedure: (§1) Following the standardized kinase activity assay protocol as previously reported, we utilized the SelectScreen Kinase Profiling Service (Thermo Fisher Scientific) to determine the kinase selectivity profile of FLIN-4 ([van der Wel et al., 2020]). Through a ten-dose dilution series ranging from 0.25 μM to 128 μM in dose-response experiments, we precisely measured the inhibitory effect of FLIN-4 on the substrate phosphorylation reactions catalyzed by a panel of kinases, and thus ascertained the half-maximal inhibitory concentrations (IC50) for each kinase.
Chain of ABL1 (P00519 whole entry): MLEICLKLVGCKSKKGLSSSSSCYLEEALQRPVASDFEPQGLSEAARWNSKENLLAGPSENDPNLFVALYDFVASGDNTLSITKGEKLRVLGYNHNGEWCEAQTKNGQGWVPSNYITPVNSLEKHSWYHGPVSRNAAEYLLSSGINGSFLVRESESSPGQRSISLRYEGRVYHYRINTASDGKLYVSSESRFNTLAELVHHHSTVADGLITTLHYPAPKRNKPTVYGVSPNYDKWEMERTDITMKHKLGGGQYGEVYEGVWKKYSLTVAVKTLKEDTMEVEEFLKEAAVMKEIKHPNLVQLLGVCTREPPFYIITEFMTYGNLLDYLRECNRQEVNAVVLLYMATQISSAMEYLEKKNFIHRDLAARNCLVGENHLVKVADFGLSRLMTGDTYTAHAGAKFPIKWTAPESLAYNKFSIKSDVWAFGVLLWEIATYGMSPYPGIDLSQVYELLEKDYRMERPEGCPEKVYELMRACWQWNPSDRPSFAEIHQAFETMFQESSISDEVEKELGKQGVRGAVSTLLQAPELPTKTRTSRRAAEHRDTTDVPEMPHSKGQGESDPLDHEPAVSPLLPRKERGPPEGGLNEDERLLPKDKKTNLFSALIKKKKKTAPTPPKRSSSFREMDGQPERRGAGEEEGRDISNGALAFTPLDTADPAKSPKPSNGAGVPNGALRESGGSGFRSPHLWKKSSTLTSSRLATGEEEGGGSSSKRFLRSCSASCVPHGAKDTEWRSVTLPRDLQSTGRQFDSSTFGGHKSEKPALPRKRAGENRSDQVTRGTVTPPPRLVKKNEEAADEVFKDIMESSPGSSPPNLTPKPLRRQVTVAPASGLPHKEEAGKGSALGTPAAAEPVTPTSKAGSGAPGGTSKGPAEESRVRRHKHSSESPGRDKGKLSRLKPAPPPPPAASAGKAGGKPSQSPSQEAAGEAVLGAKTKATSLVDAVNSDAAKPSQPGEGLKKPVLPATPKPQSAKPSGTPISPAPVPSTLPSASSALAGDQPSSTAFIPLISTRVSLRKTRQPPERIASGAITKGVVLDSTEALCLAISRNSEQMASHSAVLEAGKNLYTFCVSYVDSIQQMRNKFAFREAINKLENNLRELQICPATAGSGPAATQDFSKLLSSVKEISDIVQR

The target of data set [5] is BLK (Homo sapiens, UniProt P51451). In words: SelectScreen kinase selectivity assay. The class given is biochemical. The conditions noted are these: ten-dose 0.25–128 μM. On the procedure: as §1
Chain of BLK (P51451 whole entry): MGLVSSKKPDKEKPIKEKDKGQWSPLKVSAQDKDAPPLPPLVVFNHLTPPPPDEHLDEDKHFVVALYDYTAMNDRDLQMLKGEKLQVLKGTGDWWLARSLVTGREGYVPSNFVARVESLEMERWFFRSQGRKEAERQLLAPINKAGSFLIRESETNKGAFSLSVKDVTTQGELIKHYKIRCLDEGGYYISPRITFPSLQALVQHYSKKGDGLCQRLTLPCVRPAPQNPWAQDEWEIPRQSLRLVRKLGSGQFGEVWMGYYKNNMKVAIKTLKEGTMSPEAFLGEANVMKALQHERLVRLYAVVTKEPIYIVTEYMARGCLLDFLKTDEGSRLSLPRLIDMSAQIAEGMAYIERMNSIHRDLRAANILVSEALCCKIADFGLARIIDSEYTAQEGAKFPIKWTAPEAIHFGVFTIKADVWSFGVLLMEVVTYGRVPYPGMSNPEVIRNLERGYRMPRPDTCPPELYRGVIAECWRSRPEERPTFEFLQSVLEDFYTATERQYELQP
For data set [6], the target named is BMX (Homo sapiens, UniProt P51813). The experiment in a line: SelectScreen kinase selectivity assay. As to conditions: ten-dose 0.25–128 μM. The format is biochemical. On the procedure:
as §1

The target of data set [7] is DDR2 (Homo sapiens, UniProt Q16832). The experiment in a line: SelectScreen kinase selectivity assay. The class given is biochemical. The conditions noted are these: ten-dose 0.25–128 μM. On the procedure:
as §1

For data set [8], the target named is EPHA1 (Homo sapiens, UniProt P21709). In words: SelectScreen kinase selectivity assay. The format is biochemical. The conditions noted are these: ten-dose 0.25–128 μM. On the procedure:
as §1

Data set [9] has as its target EPHB2 (Homo sapiens, UniProt P29323). The experiment in a line: SelectScreen kinase selectivity assay. The format is biochemical. As to conditions: ten-dose 0.25–128 μM. On the procedure:
as §1

Data set [10] deals with JAK3 (Homo sapiens, UniProt P52333). The experiment in a line: SelectScreen kinase selectivity assay. The class given is biochemical. As to conditions: ten-dose 0.25–128 μM. On the procedure:
as §1

In data set [11] the target is KIT (Homo sapiens, UniProt P10721). In words: SelectScreen kinase selectivity assay. The format is biochemical. The conditions noted are these: ten-dose 0.25–128 μM. On the procedure: as §1
Chain of KIT (P10721 26-976): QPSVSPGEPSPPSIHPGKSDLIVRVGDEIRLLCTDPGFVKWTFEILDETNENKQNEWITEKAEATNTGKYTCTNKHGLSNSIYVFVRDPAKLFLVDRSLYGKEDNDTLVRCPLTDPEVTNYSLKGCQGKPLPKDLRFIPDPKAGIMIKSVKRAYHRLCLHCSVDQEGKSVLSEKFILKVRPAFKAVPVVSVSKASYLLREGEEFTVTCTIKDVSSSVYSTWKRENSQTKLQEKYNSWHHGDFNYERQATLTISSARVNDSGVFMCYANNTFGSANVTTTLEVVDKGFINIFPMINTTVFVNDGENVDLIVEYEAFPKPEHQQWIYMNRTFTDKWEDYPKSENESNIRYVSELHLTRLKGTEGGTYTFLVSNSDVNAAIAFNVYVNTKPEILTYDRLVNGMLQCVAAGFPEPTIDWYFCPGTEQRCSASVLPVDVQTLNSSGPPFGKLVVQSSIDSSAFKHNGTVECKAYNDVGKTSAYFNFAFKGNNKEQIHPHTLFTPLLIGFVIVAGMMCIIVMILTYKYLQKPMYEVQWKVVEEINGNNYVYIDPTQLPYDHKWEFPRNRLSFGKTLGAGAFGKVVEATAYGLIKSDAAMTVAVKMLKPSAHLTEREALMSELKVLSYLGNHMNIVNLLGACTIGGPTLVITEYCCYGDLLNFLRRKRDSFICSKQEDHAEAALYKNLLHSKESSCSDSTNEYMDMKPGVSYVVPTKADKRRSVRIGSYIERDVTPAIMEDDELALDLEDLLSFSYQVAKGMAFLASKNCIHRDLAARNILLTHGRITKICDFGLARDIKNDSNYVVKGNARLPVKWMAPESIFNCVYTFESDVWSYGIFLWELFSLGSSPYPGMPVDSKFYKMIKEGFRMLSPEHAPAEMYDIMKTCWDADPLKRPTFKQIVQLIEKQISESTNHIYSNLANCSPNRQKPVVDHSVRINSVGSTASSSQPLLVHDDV
The target of data set [12] is MERTK (Homo sapiens, UniProt Q12866). In words: SelectScreen kinase selectivity assay. The class given is biochemical. The conditions noted are these: ten-dose 0.25–128 μM. On the procedure: as §1
The target of data set [13] is ZAK (Homo sapiens, UniProt Q9NYL2). In words: SelectScreen kinase selectivity assay. The class given is biochemical. As to conditions: ten-dose 0.25–128 μM. On the procedure: as §1
Chain of ZAK (Q9NYL2 whole entry): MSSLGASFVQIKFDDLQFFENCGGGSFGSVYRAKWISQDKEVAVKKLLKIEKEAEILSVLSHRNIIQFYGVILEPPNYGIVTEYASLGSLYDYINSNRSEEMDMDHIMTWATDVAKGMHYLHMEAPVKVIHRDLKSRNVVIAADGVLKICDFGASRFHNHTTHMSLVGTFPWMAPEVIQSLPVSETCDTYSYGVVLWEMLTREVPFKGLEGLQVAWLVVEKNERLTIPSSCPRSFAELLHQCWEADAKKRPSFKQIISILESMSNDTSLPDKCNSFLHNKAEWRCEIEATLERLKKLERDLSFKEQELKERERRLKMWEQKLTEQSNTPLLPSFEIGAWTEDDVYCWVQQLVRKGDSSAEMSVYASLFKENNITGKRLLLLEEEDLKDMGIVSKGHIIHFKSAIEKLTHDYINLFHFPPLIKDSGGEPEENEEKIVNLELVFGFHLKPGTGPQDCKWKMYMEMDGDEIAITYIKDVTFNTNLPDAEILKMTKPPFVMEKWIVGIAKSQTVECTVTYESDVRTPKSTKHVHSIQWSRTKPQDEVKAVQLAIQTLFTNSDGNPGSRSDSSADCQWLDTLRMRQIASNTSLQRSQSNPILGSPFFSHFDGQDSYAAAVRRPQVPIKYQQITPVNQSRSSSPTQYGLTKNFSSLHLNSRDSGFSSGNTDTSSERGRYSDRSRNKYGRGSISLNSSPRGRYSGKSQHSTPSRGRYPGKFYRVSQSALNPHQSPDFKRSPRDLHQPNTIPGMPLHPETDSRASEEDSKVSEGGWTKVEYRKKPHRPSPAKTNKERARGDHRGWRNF

Chain of BMX (P51813 whole entry): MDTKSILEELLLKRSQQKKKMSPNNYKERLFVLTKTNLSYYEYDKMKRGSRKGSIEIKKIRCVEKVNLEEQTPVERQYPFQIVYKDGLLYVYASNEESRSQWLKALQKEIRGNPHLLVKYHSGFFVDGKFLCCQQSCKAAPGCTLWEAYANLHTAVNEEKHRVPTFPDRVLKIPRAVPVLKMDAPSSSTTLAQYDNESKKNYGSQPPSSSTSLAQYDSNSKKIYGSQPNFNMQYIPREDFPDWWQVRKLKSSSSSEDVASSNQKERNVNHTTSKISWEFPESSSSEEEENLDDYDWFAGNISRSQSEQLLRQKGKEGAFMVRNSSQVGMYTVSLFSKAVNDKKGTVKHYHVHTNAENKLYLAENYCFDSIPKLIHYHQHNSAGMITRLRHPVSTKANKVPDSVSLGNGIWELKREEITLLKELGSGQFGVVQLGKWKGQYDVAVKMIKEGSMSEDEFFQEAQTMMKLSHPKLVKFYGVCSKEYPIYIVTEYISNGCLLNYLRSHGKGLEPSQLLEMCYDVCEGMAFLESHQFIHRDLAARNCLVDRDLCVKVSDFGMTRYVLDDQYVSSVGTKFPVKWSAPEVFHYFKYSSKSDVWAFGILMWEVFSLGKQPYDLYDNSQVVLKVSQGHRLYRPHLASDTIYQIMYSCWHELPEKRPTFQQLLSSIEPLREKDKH
Chain of DDR2 (Q16832 22-855): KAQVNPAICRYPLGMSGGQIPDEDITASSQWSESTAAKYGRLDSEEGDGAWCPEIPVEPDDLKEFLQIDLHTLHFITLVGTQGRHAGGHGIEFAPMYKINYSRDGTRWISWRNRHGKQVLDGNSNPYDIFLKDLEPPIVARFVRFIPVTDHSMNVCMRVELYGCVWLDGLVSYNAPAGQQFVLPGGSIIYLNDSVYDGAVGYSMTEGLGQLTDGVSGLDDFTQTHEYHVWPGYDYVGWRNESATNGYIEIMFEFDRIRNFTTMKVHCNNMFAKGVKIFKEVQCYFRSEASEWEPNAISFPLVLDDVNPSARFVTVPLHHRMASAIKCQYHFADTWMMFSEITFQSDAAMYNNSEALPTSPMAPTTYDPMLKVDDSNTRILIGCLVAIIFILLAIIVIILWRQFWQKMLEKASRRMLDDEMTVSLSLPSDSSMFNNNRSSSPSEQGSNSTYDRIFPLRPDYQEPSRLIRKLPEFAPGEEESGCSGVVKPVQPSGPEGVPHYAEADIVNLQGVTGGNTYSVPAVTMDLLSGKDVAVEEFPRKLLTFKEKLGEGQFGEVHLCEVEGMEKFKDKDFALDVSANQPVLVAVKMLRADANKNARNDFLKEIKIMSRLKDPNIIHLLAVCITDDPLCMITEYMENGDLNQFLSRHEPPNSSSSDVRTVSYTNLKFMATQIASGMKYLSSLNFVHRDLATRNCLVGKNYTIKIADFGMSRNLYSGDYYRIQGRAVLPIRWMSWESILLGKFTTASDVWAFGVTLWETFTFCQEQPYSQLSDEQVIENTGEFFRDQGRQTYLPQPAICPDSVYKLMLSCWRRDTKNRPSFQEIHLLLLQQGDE

In general, IC50 refers to the point on the concentration scale where inhibition reaches its midpoint. A lower IC50 goes with higher potency. Take `CCc1nc(C(N)=O)c(Nc2ccc(N3CCC(Nc4ccccc4)CC3)c(OC)c2)nc1NC1CCOC(C(O)CO)C1` (stereo not drawn) [FLIN-4]: the “Survival rate of COLO 829BL cells” value in data set [1] is on record as “did not induce any significant changes in the survival rates”. The p-ERK/ERK expression level entry in data set [2] (3 nM) is “significant diminution”; in data set [2] (30 nM), “exacerbated decrease”. For the same molecule, the figures for the p-FLT3/FLT3 expression level result in data set [2] (3 nM) and in data set [2] (30 nM) were “significant diminution” and “exacerbated decrease”, respectively. Besides, the p-STAT5/STAT5 expression level entry in data set [2] (3 nM) is given as “significant diminution”; in [2] (30 nM), “exacerbated decrease”. Besides, the IC50 in [3], in data set [4], in data set [5], in data set [6], in data set [7] and in data set [8] was > 10 µM each time. For the same molecule, the IC50 in [9], in data set [10], in data set [11], in data set [12] and in data set [13] was > 10 µM each time.
